In patent publication US20110003753A1, “COMPOSITIONS AND METHODS FOR DISRUPTING THE FUNCTION OF THE TRANSCRIPTIONAL REPRESSOR COMPONENT Sin3A-PAH2 DOMAIN TO INDUCE DIFFERENTIATION AND GROWTH INHIBITION IN BREAST CANCER” (SAMUEL WAXMAN CANCER RESEARCH FOUNDATION, priority 2009, published 2011):

Experiments:
MDA-MB-231 = assay: Phenotypic (morphology) changes in culture; format: cell-based, human; conditions: cells in culture
From the text: (§1) FIG. 1: Expression of a decoy peptide corresponding to MAD Sin3 interaction domain (SID) induces markers of differentiation and contact inhibition in MDA-MB-231 breast cancer cells. A. Schematic of the SID peptides and expression constructs used in this study. Shown in the upper panel are the design and sequence of the Tat-SID peptide and Tat-SID^SCR scrambled control. The Tat-SID peptide corresponds to amino acids 5-24 of MAD. This sequence binds Sin3 PAH2 with high affinity and has been previously used to study SID-PAH2 interactions in vitro. Peptides contain a leader sequence (YGRKKRRQGGG, SEQ ID No. 5) corresponding to the human immunodeficiency virus type 1 Tat arginine-rich RNA-binding motif (ARM), which has been mutated (RRR>GGG) to improve nuclear entry. B. Morphological changes induced by SID in MDA-MB-231 and MMTV-Myc. […] D. Confocal IF analyses showing the re-expression of membrane-associated E-cadherin induced by the expression of SID in MDA-MB-231 cells (top row) and MMTV-Myc cells (bottom row) E. Re-expression of nuclear RARβ in MDA-MB-231 cells detected by immunofluorescence microscopy. […]

[1] = test system: MMTV-Myc mouse breast cancer cells; assay: Phenotypic (morphology) changes in culture; format: cell-based
From the text: as §1

Sequence: YGRKKRRQGGGVRMNIQMLLEAADYLERRER [SID peptide]
- phenotypic change of cell morphology (MDA-MB-231): cobblestone monolayers and well defined cell-cell contact accompanied by cell growth contact inhibition
- phenotypic change of cell morphology [1]: cobblestone monolayers and well defined cell-cell contact accompanied by cell growth contact inhibition
